Test results: patent publication US11723907B2, “Anti-aging compounds” (THE CLEVELAND CLINIC FOUNDATION, priority 2017, dated 2023)

Legend:
[1] = cited from earlier work
cytochrome c = test: Enzymatic NAD(P)H oxidation / cytochrome c reduction catalyzed by N2N1; type: biochemical; conditions: inhibitor 2 μM
Procedure: FIGS. 5A-5C provide graphs and schemes relating to the N2N1 mechanism of action. […] No specific substrate was added into reaction mix, therefore, it was concluded that reaction was driven by slow reduction of molecular oxygen dissolved into reaction buffer. The hypothetical reaction equation is shown below reaction plots. (B) The proposed molecular mechanism of possible substrate reduction catalyzed by N2N1. (C) Addition of peroxide or cytochrome c into reaction allowed us to identify cytochrome c as the most preferable substrate for the N2N1 driven enzymatic reaction. […] It was interesting to notice that addition of cytochrome c to non-enzymatic reaction reduced the reaction rate. […] The hypothetical reaction equation is show below the reaction plots.
FIGS. 6A-6B provide graphs showing the enzymatic reduction of cytochrome C catalyzed by N2N1 can utilize both NADH and NADPH. (A) The enzymatic electrons transfer from NADH to cytochrome c driven by N2N1 was monitored by decrease in absorption at 340 nm (NADH) and increase in absorption at 550 nm (cytochrome c). The absorbance spectrum was screened at the end of the reaction (˜1 hour). The hypothetical reaction equation is shown below the reaction plots. (B) The enzymatic electrons transfer from NADPH to cytochrome c driven by N2N1 was monitored by decrease in absorption at 340 nm (NADPH) and increase in absorption at 550 nm (cytochrome c). The hypothetical reaction equation is shown below the reaction plots.
To evaluate possible participation of mitochondrial NADH oxidoreductases, in particular Complex I and III, the […] was run in the presence of rotenone or antimycin A (2 μM). The acquired data allowed us to specify the most probable candidate that carry out the transfer electrons from NAD(P)H to cytochrome C driven by N2N1. The NQO1 protein would be the most likely candidate, while proteins from CYB5 family still cannot be ruled out.
Bonkowski et al., Nature reviews. Molecular cell biology 17, 679-690 (2016); Orr et al., Antioxidants & redox signaling 19, 788-803 (2013). It quite possible, that NAD(P)H oxidation catalyzed by N2N1 is performed by NADH:cytochrome b5 reductases (CYB5 . . . ) or NAD(P)H:quinone oxidoreductase (NQO1) reductase (FIG. 3C). The inventors found by RNA-seq analysis that fourteen genes from CYB5 family were expressed in normal fibroblast. NQO1 was also detected at the high level of expression. These reductases connect aerobic metabolism with aging by directed electron flow from NAD(P)H to oxygen, cytochrome C, and peroxide. Jimenez-Hidalgo et al., Aging cell 8, 140-151 (2009). […]

Row | Compound | water solubility [1] | suppression of enzymatic reduction of cytochrome c catalyzed by N2N1 (cytochrome c)
1 | CO[C@H]1C[C@@H]2CC[C@@H](C)[C@@](O)(O2)C(=O)C(=O)N2CCCC[C@H]2C(=O)O[C@H]([C@H](C)C[C@@H]2CC[C@@H](O)[C@H](OC)C2)CC(=O)[C@H](C)/C=C(\C)[C@@H](O)[C@@H](OC)C(=O)[C@H](C)C[C@H](C)/C=C/C=C/C=C/1C [Rapamycin] | poor | –
2 | C=C(C)[C@H]1Cc2c(ccc3c2O[C@@H]2COc4cc(OC)c(OC)cc4[C@@H]2C3=O)O1 [rotenone, reference compound] | – | did not suppress
3 | antimycin A [reference compound] | – | did not suppress
